The values below come from patent publication US9926281B2 (priority 2014, dated 2018).

For assay [1], the target named is T1, human ADAMTS-5 (Homo sapiens (Human), UniProt Q9UNA0). The following applies: read-out: hADAMTS-5 potency IC50.
The target of a further assay is human TACE (Homo sapiens (Human), UniProt P78536). The following applies: read-out: TACE potency IC50.
In the next assay the target is rnADAMTS-5 (1-564-6H) (Rattus norvegicus, UniProt Q6TY19). As to conditions: read-out: Rat ADAMTS-5 potency IC50.
Assay [2] concerns the target T1, human ADAMTS-5. As to conditions: read-out: hADAMTS-5 potency IC50. The source holds these as a separate data set.
Protocol: Finally, the fluorescence is read on the Envision (Perkin Elmer) after an incubation of 90 min at 37° C.
Another assay has as its target human MMP13 (Homo sapiens (Human), UniProt P45452). The following applies: read-out: hMMP-13 potency IC50.

The structures appear in SMILES notation. Where two headings read alike, the source gives them in different places.

T1 sequence (Q9UNA0 262-930): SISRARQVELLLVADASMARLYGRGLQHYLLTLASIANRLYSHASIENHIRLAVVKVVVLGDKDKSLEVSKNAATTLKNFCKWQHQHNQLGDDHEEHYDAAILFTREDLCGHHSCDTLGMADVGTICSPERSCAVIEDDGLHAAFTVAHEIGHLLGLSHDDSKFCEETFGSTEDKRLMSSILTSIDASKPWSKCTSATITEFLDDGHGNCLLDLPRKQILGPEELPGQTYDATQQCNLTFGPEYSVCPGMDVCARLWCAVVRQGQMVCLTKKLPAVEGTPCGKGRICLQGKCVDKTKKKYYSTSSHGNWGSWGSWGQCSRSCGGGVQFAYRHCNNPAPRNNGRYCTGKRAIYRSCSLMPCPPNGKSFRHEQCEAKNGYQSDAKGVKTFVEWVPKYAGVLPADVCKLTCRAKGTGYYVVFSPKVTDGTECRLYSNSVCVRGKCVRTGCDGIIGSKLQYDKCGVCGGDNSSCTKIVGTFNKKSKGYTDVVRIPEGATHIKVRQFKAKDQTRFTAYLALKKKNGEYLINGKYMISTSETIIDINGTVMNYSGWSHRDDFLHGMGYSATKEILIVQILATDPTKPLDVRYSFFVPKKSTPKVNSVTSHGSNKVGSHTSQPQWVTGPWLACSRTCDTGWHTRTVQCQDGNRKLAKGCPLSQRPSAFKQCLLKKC
human TACE, sequence (P78536 whole entry, looked up, change not shown): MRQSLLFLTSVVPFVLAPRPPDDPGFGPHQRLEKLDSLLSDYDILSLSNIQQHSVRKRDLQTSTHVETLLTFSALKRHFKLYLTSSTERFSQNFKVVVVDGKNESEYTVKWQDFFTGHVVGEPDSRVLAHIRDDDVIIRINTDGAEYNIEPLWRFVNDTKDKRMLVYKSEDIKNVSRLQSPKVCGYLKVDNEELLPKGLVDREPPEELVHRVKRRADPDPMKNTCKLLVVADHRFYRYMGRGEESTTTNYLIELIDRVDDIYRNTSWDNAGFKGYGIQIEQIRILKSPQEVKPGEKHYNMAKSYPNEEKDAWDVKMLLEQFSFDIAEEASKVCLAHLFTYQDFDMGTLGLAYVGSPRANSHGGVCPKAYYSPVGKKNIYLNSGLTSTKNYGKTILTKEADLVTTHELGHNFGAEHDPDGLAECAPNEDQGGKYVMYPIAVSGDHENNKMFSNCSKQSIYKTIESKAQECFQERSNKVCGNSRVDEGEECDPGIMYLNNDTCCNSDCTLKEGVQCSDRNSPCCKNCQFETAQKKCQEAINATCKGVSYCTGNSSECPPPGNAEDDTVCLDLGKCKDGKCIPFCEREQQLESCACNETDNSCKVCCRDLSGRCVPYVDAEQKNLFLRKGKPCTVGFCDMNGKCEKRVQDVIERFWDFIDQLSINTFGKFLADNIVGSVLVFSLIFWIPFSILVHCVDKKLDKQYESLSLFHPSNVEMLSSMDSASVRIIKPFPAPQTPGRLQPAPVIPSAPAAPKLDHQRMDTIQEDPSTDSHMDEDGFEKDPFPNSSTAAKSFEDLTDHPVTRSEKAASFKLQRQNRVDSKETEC
Protocol for human MMP13: Human MMP13 is preactivated by incubated the enzyme in the same buffer complemented with 1 mM freshly prepared p-Aminophenylmercuric acetate (AMPA) for 1 hour at 37° C.

Usually IC50 stands for the concentration that inhibits the measured activity by half. `Cc1ccccc1N1CCN(C(=O)CCC2(CN(C)C)NC(=O)NC2=O)CC1` (stereo not drawn) [compound 119, 5-(dimethylaminomethyl)-5-[3-[4-(o-tolyl)piperazin-1-yl]-3-oxo-propyl]imidazolidine-2,4-dione]: at human ADAMTS-5 [1], the IC50 worked out at 1740 nM.
As to `O=C1NC(=O)C(CCC(=O)N2CCN(c3cccnc3)CC2)(c2ccccc2)N1` (stereo not drawn) [compound 45, 5-[3-oxo-3-[4-(3-pyridyl)piperazin-1-yl]propyl]-5-phenyl-imidazolidine-2,4-dione], the figures for the IC50 at human ADAMTS-5 [1] and at human TACE were 204 nM and more than 20000 nM, respectively.
Take `Cc1cccc(C2(CCC(=O)N3CCN(c4cccc(Cl)c4)CC3)NC(=O)NC2=O)c1` (stereo not drawn) [compound 141, 5-[3-[4-(3-chlorophenyl)piperazin-1-yl]-3-oxo-propyl]-5-(m-tolyl)imidazolidine-2,4-dione]: on human ADAMTS-5 [1], the IC50 amounted to 119 nM.
`CC1(CCC(=O)N2CCN(c3ccc(F)c(F)c3)CC2)NC(=O)NC1=O` (stereo not drawn) [compound 37, 5-[3-[4-(3,4-difluorophenyl)piperazin-1-yl]-3-oxo-propyl]-5-methyl-imidazolidine-2,4-dione]: the figures for the half-inhibitory concentration (IC50) on human ADAMTS-5 [1] and on human TACE were 229 nM and more than 20000 nM, respectively.
Turning to `CN(C)CCC1(CCC(=O)N2CCN(c3cc(Cl)cc(Cl)c3)CC2)NC(=O)NC1=O` (stereo not drawn) [compound 58, 5-[3-[4-(3,5-dichlorophenyl)piperazin-1-yl]-3-oxo-propyl]-5-(2-dimethylaminoethyl)imidazolidine-2,4-dione], the concentration for half-maximal inhibition (IC50) at human ADAMTS-5 [1] was more than 20000 nM.
Consider `CC1(CCC(=O)N2CCN(c3cccc(Cl)c3Cl)CC2)NC(=O)NC1=O` (stereo not drawn) [compound 41, 5-[3-[4-(2,3-dichlorophenyl)piperazin-1-yl]-3-oxo-propyl]-5-methyl-imidazolidine-2,4-dione], for which the 50% inhibitory concentration (IC50) at human ADAMTS-5 [1] worked out at 2660 nM.
For `CC1(CCC(=O)N2CCN(c3nccs3)CC2)NC(=O)NC1=O` (stereo not drawn) [compound 59, 5-methyl-5-[3-oxo-3-(4-thiazol-2-ylpiperazin-1-yl)propyl]imidazolidine-2,4-dione], at human ADAMTS-5 [1], the half-maximal inhibitory concentration (IC50) was more than 20000 nM.
Same read-out and setting: with `CC1(CCC(=O)N2CCN(c3cccc(Br)c3)CC2)NC(=O)NC1=O` (stereo not drawn) [compound 48, 5-[3-[4-(3-bromophenyl)piperazin-1-yl]-3-oxo-propyl]-5-methyl-imidazolidine-2,4-dione] the figure was 391 nM.
Same read-out and setting: with `Cc1ccc(N2CCN(C(=O)CCC3(C)NC(=O)NC3=O)CC2)c(C)c1` (stereo not drawn) [compound 38, 5-[3-[4-(2,4-dimethylphenyl)piperazin-1-yl]-3-oxo-propyl]-5-methyl-imidazolidine-2,4-dione] the figure was more than 4000 nM; with `Cc1cc(F)ccc1N1CCN(C(=O)CCC2(C)NC(=O)NC2=O)CC1` (stereo not drawn) [compound 61, 5-[3-[4-(4-fluoro-2-methyl-phenyl)piperazin-1-yl]-3-oxo-propyl]-5-methyl-imidazolidine-2,4-dione], 2940 nM.
With `CC(CC1(C2CC2)NC(=O)NC1=O)C(=O)N1CCN(c2cc(Cl)cc(Cl)c2)CC1` (stereo not drawn) [compound 172, 5-cyclopropyl-5-[3-[4-(3,5-dichlorophenyl)piperazin-1-yl]-2-methyl-3-oxo-propyl]imidazolidine-2,4-dione], the IC50 was found to be 11 nM at rnADAMTS-5 (1-564-6H), 17 nM on human ADAMTS-5 [2], 311 nM on human TACE and 2740 nM at human MMP13.
Take `Cc1ccc(N2CCN(C(=O)CCC3(c4ccccc4)NC(=O)NC3=O)CC2)c(C)c1` (stereo not drawn) [compound 31, 5-[3-[4-(2,4-dimethylphenyl)piperazin-1-yl]-3-oxo-propyl]-5-phenyl-imidazolidine-2,4-dione]: the IC50 at human ADAMTS-5 [1] was 1060 nM.
As to `Cc1c(Cl)cccc1N1CCN(C(=O)C(C)CC2(C3CC3)NC(=O)NC2=O)CC1` (stereo not drawn) [compound 176, 5-[3-[4-(3-chloro-2-methyl-phenyl)piperazin-1-yl]-2-methyl-3-oxo-propyl]-5-cyclopropyl-imidazolidine-2,4-dione], the IC50 at rnADAMTS-5 (1-564-6H) was 7 nM; at human ADAMTS-5 [2], 16 nM; on human TACE it was 1230 nM; on human MMP13 it was more than 20000 nM.
The corresponding values for `COC(CC1(C2CC2)NC(=O)NC1=O)C(=O)N1CCN(c2cc(Cl)cc(Cl)c2)CC1` (stereo not drawn) [compound 206, 5-cyclopropyl-5-[3-[4-(3,5-dichlorophenyl)piperazin-1-yl]-2-methoxy-3-oxo-propyl]imidazolidine-2,4-dione] are 40 nM, 60 nM, more than 4000 nM and more than 4000 nM.
The corresponding values for `Cc1ccc(F)cc1N1CCN(C(=O)C(C)CC2(C)NC(=O)NC2=O)CC1` (stereo not drawn) [compound 175, 5-[3-[4-(5-fluoro-2-methyl-phenyl)piperazin-1-yl]-2-methyl-3-oxo-propyl]-5-methyl-imidazolidine-2,4-dione] are 22 nM, 25 nM, 251 nM and more than 20000 nM.
For `C[C@@H]1CN(C(=O)CCC2(c3ccccc3)NC(=O)NC2=O)CCN1c1ccccc1` (stereo partly drawn) [compound 131, 5-[3-[(3R)-3-methyl-4-phenyl-piperazin-1-yl]-3-oxo-propyl]-5-phenyl-imidazolidine-2,4-dione], at human ADAMTS-5 [1], the IC50 came to 1260 nM.
`C[C@H]1CN(C(=O)CCC2(C3CC3)NC(=O)NC2=O)CCN1c1ccc(Cl)c(F)c1` (stereo partly drawn) [compound 162, 5-[3-[(3S)-4-(4-chloro-3-fluoro-phenyl)-3-methyl-piperazin-1-yl]-3-oxo-propyl]-5-cyclopropyl-imidazolidine-2,4-dione]: the IC50 on rnADAMTS-5 (1-564-6H) was 45 nM; at human ADAMTS-5 [2], 39 nM; at human TACE it was more than 20000 nM; on human MMP13, more than 4000 nM.
`CC1CN(C(=O)CCC2(C3CC3)NC(=O)NC2=O)CCN1c1cccc(F)c1` (stereo not drawn) [compound 149, 5-cyclopropyl-5-[3-[4-(3-fluorophenyl)-3-methyl-piperazin-1-yl]-3-oxo-propyl]imidazolidine-2,4-dione]: at human ADAMTS-5 [1], the IC50 turned out to be 79 nM.
The same measure, in the same setting: with `CC1CN(C(=O)CCC2(C3CC3)NC(=O)NC2=O)CCN1c1cccc(Cl)c1` (stereo not drawn) [compound 150, 5-[3-[4-(3-chlorophenyl)-3-methyl-piperazin-1-yl]-3-oxo-propyl]-5-cyclopropyl-imidazolidine-2,4-dione] the figure was 95 nM; with `CC1(CCC(=O)N2CCN(c3ccccn3)CC2)NC(=O)NC1=O` (stereo not drawn) [compound 42, 5-methyl-5-[3-oxo-3-[4-(2-pyridyl)piperazin-1-yl]propyl]imidazolidine-2,4-dione], more than 3980 nM.
For `C[C@H]1CN(C(=O)CCC2(C)NC(=O)NC2=O)CCN1c1ccc(Cl)c(Cl)c1` (stereo partly drawn) [compound 168, 5-[3-[(3S)-4-(3,4-dichlorophenyl)-3-methyl-piperazin-1-yl]-3-oxo-propyl]-5-methyl-imidazolidine-2,4-dione], the half-maximal inhibitory concentration (IC50) on rnADAMTS-5 (1-564-6H) is 129 nM; at human ADAMTS-5 [2], 76 nM; at human TACE, more than 20000 nM; on human MMP13, more than 20000 nM.
For the molecule `CC(CC1(C2CCOCC2)NC(=O)NC1=O)C(=O)N1CCN(c2cc(Cl)cc(Cl)c2)CC1` (stereo not drawn) [compound 199, 5-[3-[4-(3,5-dichlorophenyl)piperazin-1-yl]-2-methyl-3-oxo-propyl]-5-tetrahydropyran-4-yl-imidazolidine-2,4-dione], the IC50 is 48 nM on rnADAMTS-5 (1-564-6H), 62 nM at human ADAMTS-5 [2], 1050 nM on human TACE and more than 20000 nM on human MMP13.
`CC(C)(C)OC(=O)CC1(CCC(=O)N2CCN(c3cc(Cl)cc(Cl)c3)CC2)NC(=O)NC1=O` (stereo not drawn) [Cpd 188, tert-butyl 2-[4-[3-[4-(3,5-dichlorophenyl)piperazin-1-yl]-3-oxo-propyl]-2,5-dioxo-imidazolidin-4-yl]acetate]: the IC50 on rnADAMTS-5 (1-564-6H) is 54 nM; at human ADAMTS-5 [2], 53 nM; at human TACE, more than 4000 nM; on human MMP13, 2670 nM.
The corresponding values for `CC(CC1(C)NC(=O)NC1=O)C(=O)N1CCN(c2ccc(F)c(F)c2)CC1` (stereo not drawn) [compound 211, 5-[3-[4-(3,4-difluorophenyl)piperazin-1-yl]-2-methyl-3-oxo-propyl]-5-methyl-imidazolidine-2,4-dione] are 23 nM, 48 nM, 3740 nM and 377 nM.
The corresponding values for `CC(CC1(C)NC(=O)NC1=O)C(=O)N1CCN(c2ccc(F)c(Cl)c2)[C@@H](C)C1` (stereo partly drawn) [compound 405, 5-{3-[(S)-4-(3-Chloro-4-fluoro-phenyl)-3-methyl-piperazin-1-yl]-2-methyl-3-oxo-propyl}-5-methyl-imidazolidine-2,4-dione] are 18 nM, 22 nM, more than 4000 nM and 2330 nM.
The corresponding values for `CSCCC1(CC(C)C(=O)N2CCN(c3cc(Cl)cc(Cl)c3)CC2)NC(=O)NC1=O` (stereo not drawn) [compound 197, 5-[3-[4-(3,5-dichlorophenyl)piperazin-1-yl]-2-methyl-3-oxo-propyl]-5-(2-methylsulfanylethyl)imidazolidine-2,4-dione] are 21 nM, 26 nM, 134 nM and more than 4000 nM.
With `O=C(CC1(CCC(=O)N2CCN(c3cc(Cl)cc(Cl)c3)CC2)NC(=O)NC1=O)NCCO` (stereo not drawn) [Cpd 189, 2-[4-[3-[4-(3,5-dichlorophenyl)piperazin-1-yl]-3-oxo-propyl]-2,5-dioxo-imidazolidin-4-yl]-N-(2-hydroxyethyl)acetamide], the IC50 at rnADAMTS-5 (1-564-6H) is 254 nM; at human ADAMTS-5 [2], 256 nM; at human TACE, more than 4000 nM; on human MMP13, more than 20000 nM.
The corresponding values for `NCC1(CCC(=O)N2CCN(c3cc(Cl)cc(Cl)c3)CC2)NC(=O)NC1=O` (stereo not drawn) [compound 180, 5-(aminomethyl)-5-[3-[4-(3,5-dichlorophenyl)piperazin-1-yl]-3-oxo-propyl]imidazolidine-2,4-dione] are 241 nM, 177 nM, more than 4000 nM and more than 20000 nM.
